In the first experiment the test system is Spodoptera littoralis. Nature of the experiment: Spodoptera littoralis (Egyptian cotton leafworm) cotton leaf disc test. As to conditions: foliar, 72 h, 200 ppm sprayed on cotton leaf discs, 5 L1 larvae, mortality, feeding behaviour, growth regulation 3 DAT. Type of experiment: in vivo. The source says: Spodoptera littoralis (Egyptian Cotton Leafworm): Cotton leaf discs were placed on agar in a 24-well microtiter plate and sprayed with test solutions at an application rate of 200 ppm. After drying, the leaf discs were infested with 5 L1 larvae. The samples were checked for mortality, feeding behaviour, and growth regulation 3 days after treatment (DAT).
The term pest or weed control denotes how far the test organism was held down. For `Cc1ccc(C(=O)Nc2cccc(C(=O)Nc3c(C(F)(F)F)c(C(F)(F)C(F)(F)F)nn3C)c2F)cc1` [Compound B6], the pest or weed control at 200 ppm was at least 80%.
In turn, `Cn1nc(C(F)(F)C(F)(F)F)c(C(F)(F)F)c1NC(=O)c1cccc(NC(=O)c2ccc(OC(F)(F)F)cc2)c1` [Compound D11] showed a pest or weed control at 200 ppm of at least 80%.
Regarding `Cc1ccccc1C(=O)Nc1cccc(C(=O)Nc2c(C(F)(F)F)c(C(F)(F)C(F)(F)F)nn2C)c1` [Compound D2], the pest or weed control at 200 ppm is at least 80%.
The same measure, in the same setting: in the case of `Cn1nc(C(F)(F)C(F)(F)F)c(C(F)(F)F)c1NC(=O)c1ccc(Cl)c(NC(=O)c2ccccc2Cl)c1` [Compound E3] it was at least 80%; in that of `Cn1nc(C(F)(F)C(F)(F)F)c(C(F)(F)F)c1NC(=O)c1cccc(NC(=O)c2ccc([N+](=O)[O-])cc2)c1` [Compound D5], at least 80%.

The subject of a further experiment is Diabrotica balteata. Nature of the experiment: Diabrotica balteata (corn root worm) artificial diet test. Format: in vivo. As to conditions: 120 h, 200 ppm (concentration in well 18 ppm), L2 larvae, 5 days, larval mortality and growth regulation. The procedure: Diabrotica balteata (Corn Root Worm): A 24-well microtiter plate (MTP) with artificial diet was treated with test solutions at an application rate of 200 ppm (concentration in well 18 ppm) by pipetting. After drying, the MTP's were infested with larvae (L2) (6-10 per well). After an incubation period of 5 days, samples were checked for larval mortality, and growth regulation.
The compound `Cn1nc(C(F)(F)C(F)(F)F)c(C(F)(F)F)c1NC(=O)c1cccc(NC(=O)c2ccccc2OC(F)(F)F)c1` [Compound D14] yielded a pest or weed control at 200 ppm of at least 80%.
In turn, `Cn1nc(C(F)(F)C(F)(F)F)c(C(F)(F)F)c1NC(=O)c1ccc(Cl)c(NC(=O)c2ccc(F)c(C(F)(F)F)c2)c1` [Compound E12] showed a pest or weed control at 200 ppm of at least 80%.
Compound `Cn1nc(C(F)(F)C(F)(F)F)c(C(F)(F)F)c1NC(=O)c1ccc(Cl)c(NC(=O)c2cccc(F)c2F)c1` [Compound E21] gave a pest or weed control at 200 ppm of at least 80%.
Still for that read-out and setting: in the case of `Cn1nc(C(F)(F)C(F)(F)F)c(C(F)(F)F)c1NC(=O)c1ccc(Cl)c(NC(=O)c2ccc([N+](=O)[O-])cc2Cl)c1` [Compound E9] it was at least 80%; in that of `Cn1nc(C(F)(F)C(F)(F)F)c(C(F)(F)F)c1NC(=O)c1ccc(C#N)c(NC(=O)c2ccncc2)n1` [Compound F2], at least 80%; in that of `Cn1nc(C(F)(F)C(F)(F)F)c(C(F)(F)F)c1NC(=O)c1cccc(NC(=O)c2ccc(F)c(C(F)(F)F)c2)c1` [Compound D12], at least 80%.
As to `Cn1nc(C(F)(F)C(F)(F)F)c(C(F)(F)F)c1NC(=O)c1ccc(Cl)c(NC(=O)c2ccc([N+](=O)[O-])cc2)c1` [Compound E5], the pest or weed control at 200 ppm is at least 80%.
Take `Cn1nc(C(F)(F)C(F)(F)F)c(C(F)(F)F)c1NC(=O)c1ccc(Cl)c(NC(=O)c2ccc(C(F)(F)F)cc2)c1` [Compound E13]: the pest or weed control at 200 ppm is at least 80%.
Still for that read-out and setting: in the case of `Cc1ccc(C(=O)Nc2cccc(C(=O)Nc3c(C(F)(F)F)c(C(F)(F)C(F)(F)F)nn3C)c2F)cc1` [Compound B6] it was at least 80%; in that of `Cn1nc(C(F)(F)C(F)(F)F)c(C(F)(F)F)c1NC(=O)c1cccc(NC(=O)c2ccc(OC(F)(F)F)cc2)c1` [Compound D11], at least 80%.
`Cn1nc(C(F)(F)C(F)(F)F)c(C(F)(F)F)c1NC(=O)c1ccc(Cl)c(NC(=O)c2ccccc2C(F)(F)F)c1` [Compound E18] returned a pest or weed control at 200 ppm of at least 80%.
Take `Cc1ccccc1C(=O)Nc1cccc(C(=O)Nc2c(C(F)(F)F)c(C(F)(F)C(F)(F)F)nn2C)c1` [Compound D2]: the pest or weed control at 200 ppm is at least 80%.
Same read-out and setting: in the case of `Cn1nc(C(F)(F)C(F)(F)F)c(C(F)(F)F)c1NC(=O)c1ccc(Cl)c(NC(=O)c2ccccc2Cl)c1` [Compound E3] it was at least 80%; in that of `Cn1nc(C(F)(F)C(F)(F)F)c(C(F)(F)F)c1NC(=O)c1cccc(NC(=O)c2ccc(C#N)cc2)c1` [Compound D4], at least 80%.
In turn, `Cn1nc(C(F)(F)C(F)(F)F)c(C(F)(F)F)c1NC(=O)c1cccc(NC(=O)c2ccc([N+](=O)[O-])cc2)c1` [Compound D5] yielded a pest or weed control at 200 ppm of at least 80%.

Another experiment concerns Plutella xylostella. In words: Plutella xylostella (diamond back moth) artificial diet test. Format: in vivo. The note with it: 144 h, 200 ppm (concentration in well 18 ppm), L2 larvae, 6 days, larval mortality and growth regulation. On the procedure: Plutella xylostella (Diamond Back Moth): A 24-well microtiter plate (MTP) with artificial diet was treated with test solutions at an application rate of 200 ppm (concentration in well 18 ppm) by pipetting. After drying, the MTP's were infested with L2 larvae (7-12 per well). After an incubation period of 6 days, samples were checked for larval mortality and growth regulation.
`Cn1nc(C(F)(F)C(F)(F)F)c(C(F)(F)F)c1NC(=O)c1ccc(C#N)c(NC(=O)c2ccncc2)n1` [Compound F2] returned a pest or weed control at 200 ppm of at least 80%.
Same read-out and setting: for `Cn1nc(C(F)(F)C(F)(F)F)c(C(F)(F)F)c1NC(=O)c1ccc(Cl)c(NC(=O)c2ccc([N+](=O)[O-])cc2)c1` [Compound E5] the value was at least 80%; for `Cc1ccc(C(=O)Nc2cccc(C(=O)Nc3c(C(F)(F)F)c(C(F)(F)C(F)(F)F)nn3C)c2F)cc1` [Compound B6], at least 80%; for `Cn1nc(C(F)(F)C(F)(F)F)c(C(F)(F)F)c1NC(=O)c1cccc(NC(=O)c2ccc(OC(F)(F)F)cc2)c1` [Compound D11], at least 80%.
The compound `Cc1ccccc1C(=O)Nc1cccc(C(=O)Nc2c(C(F)(F)F)c(C(F)(F)C(F)(F)F)nn2C)c1` [Compound D2] returned a pest or weed control at 200 ppm of at least 80%.
`Cn1nc(C(F)(F)C(F)(F)F)c(C(F)(F)F)c1NC(=O)c1ccc(Cl)c(NC(=O)c2ccccc2Cl)c1` [Compound E3] registered a pest or weed control at 200 ppm of at least 80%.
Same read-out and setting: in the case of `Cn1nc(C(F)(F)C(F)(F)F)c(C(F)(F)F)c1NC(=O)c1cccc(NC(=O)c2ccc([N+](=O)[O-])cc2)c1` [Compound D5] it was at least 80%.

A further experiment concerns Heliothis virescens. In words: Heliothis virescens (tobacco budworm) egg/artificial diet test. Format: in vivo. The note with it: 96 h, 200 ppm (concentration in well 18 ppm), eggs 0-24 h old on artificial diet, 4 days, egg mortality, larval mortality, growth regulation. The procedure: Heliothis virescens (Tobacco Budworm): Eggs (0-24 h old) were placed in 24-well microtiter plate on artificial diet and treated with test solutions at an application rate of 200 ppm (concentration in well 18 ppm) by pipetting. After an incubation period of 4 days, samples were checked for egg mortality, larval mortality and growth regulation.
On to `Cn1nc(C(F)(F)C(F)(F)F)c(C(F)(F)F)c1NC(=O)c1ccc(Cl)c(NC(=O)c2cccc(F)c2F)c1` [Compound E21], for which the pest or weed control at 200 ppm was at least 80%.
Compound `Cn1nc(C(F)(F)C(F)(F)F)c(C(F)(F)F)c1NC(=O)c1ccc(C#N)c(NC(=O)c2ccncc2)n1` [Compound F2] gave a pest or weed control at 200 ppm of at least 80%.
Still for that read-out and setting: for `Cn1nc(C(F)(F)C(F)(F)F)c(C(F)(F)F)c1NC(=O)c1cccc(NC(=O)c2ccc(F)c(C(F)(F)F)c2)c1` [Compound D12] the value was at least 80%.
The same measure, in the same setting: in the case of `Cn1nc(C(F)(F)C(F)(F)F)c(C(F)(F)F)c1NC(=O)c1ccc(Cl)c(NC(=O)c2ccc([N+](=O)[O-])cc2)c1` [Compound E5] it was at least 80%; in that of `Cn1nc(C(F)(F)C(F)(F)F)c(C(F)(F)F)c1NC(=O)c1ccc(Cl)c(NC(=O)c2ccc(C(F)(F)F)cc2)c1` [Compound E13], at least 80%; in that of `Cc1ccc(C(=O)Nc2cccc(C(=O)Nc3c(C(F)(F)F)c(C(F)(F)C(F)(F)F)nn3C)c2F)cc1` [Compound B6], at least 80%.
On the same count and under the same terms, in the case of `Cn1nc(C(F)(F)C(F)(F)F)c(C(F)(F)F)c1NC(=O)c1cccc(NC(=O)c2ccc(OC(F)(F)F)cc2)c1` [Compound D11] it was at least 80%; in that of `Cc1ccccc1C(=O)Nc1cccc(C(=O)Nc2c(C(F)(F)F)c(C(F)(F)C(F)(F)F)nn2C)c1` [Compound D2], at least 80%; in that of `Cn1nc(C(F)(F)C(F)(F)F)c(C(F)(F)F)c1NC(=O)c1ccc(Cl)c(NC(=O)c2ccccc2Cl)c1` [Compound E3], at least 80%.
As to `Cn1nc(C(F)(F)C(F)(F)F)c(C(F)(F)F)c1NC(=O)c1cccc(NC(=O)c2ccc([N+](=O)[O-])cc2)c1` [Compound D5], the pest or weed control at 200 ppm was at least 80%.

The subject of another experiment is Tetranychus urticae. Nature of the experiment: Tetranychus urticae (two-spotted spider mite) bean leaf disc test. Type of experiment: in vivo. The note with it: foliar, 192 h, 200 ppm sprayed on bean leaf discs, mixed ages, 8 days, egg, larval and adult mortality. The source says:
Tetranychus urticae (Two-Spotted Spider Mite): Bean leaf discs on agar in 24-well microtiter plates were sprayed with test solutions at an application rate of 200 ppm. After drying, the leaf discs are infested with mite populations of mixed ages. 8 days later, discs are checked for egg mortality, larval mortality, and adult mortality.
In turn, `Cn1nc(C(F)(F)C(F)(F)F)c(C(F)(F)F)c1NC(=O)c1ccc(Cl)c(NC(=O)c2ccc([N+](=O)[O-])cc2Cl)c1` [Compound E9] returned a pest or weed control at 200 ppm of at least 80%.
Take `Cn1nc(C(F)(F)C(F)(F)F)c(C(F)(F)F)c1NC(=O)c1ccc(C#N)c(NC(=O)c2ccncc2)n1` [Compound F2]: the pest or weed control at 200 ppm is at least 80%.
Compound `Cn1nc(C(F)(F)C(F)(F)F)c(C(F)(F)F)c1NC(=O)c1cccc(NC(=O)c2ccc(C#N)cc2)c1` [Compound D4] came in with a pest or weed control at 200 ppm of at least 80%.

Values taken from US20130269064A1, “INSECTICIDAL COMPOUNDS” (SYNGENTA PARTICIPATIONS AG, priority 2010, published 2013).
